Counter-ions that a name gives are not always drawn.
Molecular target: T1, telomerase (catalytic subunit TERT) (Homo sapiens, UniProt O14746)
T1 construct: with telomerase RNA component TER (endogenous telomerase ribonucleoprotein in MCF7 lysate)
Assay: q-TRAP-ligand assay in MCF7 cell lysate, compound added before telomere elongation
Format: biochemical

T1 sequence (O14746 whole entry): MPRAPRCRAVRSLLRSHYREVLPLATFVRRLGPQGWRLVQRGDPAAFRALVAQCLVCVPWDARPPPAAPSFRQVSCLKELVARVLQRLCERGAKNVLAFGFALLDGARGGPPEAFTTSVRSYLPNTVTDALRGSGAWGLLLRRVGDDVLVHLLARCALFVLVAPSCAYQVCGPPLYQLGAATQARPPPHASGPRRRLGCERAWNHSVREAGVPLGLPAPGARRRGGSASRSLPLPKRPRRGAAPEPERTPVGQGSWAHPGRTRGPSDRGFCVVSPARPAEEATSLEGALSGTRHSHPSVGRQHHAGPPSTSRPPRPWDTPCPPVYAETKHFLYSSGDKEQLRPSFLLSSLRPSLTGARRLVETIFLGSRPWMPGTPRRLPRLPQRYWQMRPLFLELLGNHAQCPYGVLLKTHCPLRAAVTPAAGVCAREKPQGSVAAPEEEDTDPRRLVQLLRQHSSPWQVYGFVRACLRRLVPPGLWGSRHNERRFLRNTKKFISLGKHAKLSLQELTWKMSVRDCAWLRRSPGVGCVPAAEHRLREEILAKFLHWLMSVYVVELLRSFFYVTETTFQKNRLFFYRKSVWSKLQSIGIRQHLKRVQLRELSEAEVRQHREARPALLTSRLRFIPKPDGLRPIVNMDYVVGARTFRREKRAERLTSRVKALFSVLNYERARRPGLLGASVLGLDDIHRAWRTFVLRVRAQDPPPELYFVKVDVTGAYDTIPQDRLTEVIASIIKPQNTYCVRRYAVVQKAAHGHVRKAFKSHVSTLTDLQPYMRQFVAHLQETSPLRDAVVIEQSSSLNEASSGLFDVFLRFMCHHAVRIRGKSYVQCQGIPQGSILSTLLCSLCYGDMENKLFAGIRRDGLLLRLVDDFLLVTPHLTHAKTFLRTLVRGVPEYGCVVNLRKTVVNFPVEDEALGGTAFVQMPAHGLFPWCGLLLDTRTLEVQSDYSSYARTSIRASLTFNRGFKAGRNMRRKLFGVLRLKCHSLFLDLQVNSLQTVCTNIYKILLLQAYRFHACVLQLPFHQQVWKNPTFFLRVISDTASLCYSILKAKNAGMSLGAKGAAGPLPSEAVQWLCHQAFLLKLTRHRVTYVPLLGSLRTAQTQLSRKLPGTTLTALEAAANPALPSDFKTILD

SMILES | IC50 [µM]
COc1cc2c(ccc3c(CCN(C)Cc4ccccc4)cc(O)c(OC)c32)cc1O [BSB, N-benzylsecoboldine hydrochloride] | 0.17 ± 0.1
COc1cc2c(cc1O)C[C@H]1c3c(cc(O)c(OC)c3-2)CCN1C [Boldine, 1,10-dimethoxy-2,9-dihydroxyaporphine] | 68 ± 2.5

Source: paper PMC5979471, “Telomerase Inhibition by a New Synthetic Derivative of the Aporphine Alkaloid Boldine” (International Journal of Molecular Sciences, 2018)
